In patent publication US7723299B2, “Methods for treating rheumatoid arthritis using a CTLA-4 fusion protein” (ForHumanTech. Co., Ltd., priority 2005, dated 2010):
No end group written: not given here.

Assays:
[1] = system: HeLa, HepG2, HaCat and NIH3T3; assay: Transduction efficiency in various cell lines, X-gal staining; assay type: cell-based; details: 1 hour incubation with Hph-1-β-gal
Protocol: FIG. 1C are photographs of transduction efficiency of Hph-1 in several cell lines, including HeLa, HepG2, HaCat and NIH3T3. After 1 hour incubation with Hph-1-β-gal, cells were fixed and stained with X-gal solution. The images were then captured by fluorescence microscopy.
After the Hph-1-β-gal construct was transduced into each cell line for 1 hour, the cells were washed with PBS and fixed immediately. Then, the fixed cells were incubated with X-Gal solution for 1-3 hours at 37° C. The mice tissue samples from the liver, kidney, heart, lung, spleen and brain were isolated at 12 hours after i.p. injection of Hph-1-β-gal, sectioned (in 10- and 50-μm sections), and assayed using an X-Gal staining kit (Roche) (Schwarze S. R., et al., Science 285:1569-1572 (1999)). The image was captured by fluorescence microscopy (Nikon). Transduction capacity of Hph-1-β-gal was also analyzed by western blot analysis. […] Bound antibody was detected using horseradish peroxidase-conjugated antibody to mouse IgG (1:5,000), followed by enhanced chemiluminescence (Pierce). To monitor the localization of the Hph-1-PTD-eGFP fusion protein, Hela cells were incubated with 10 μM of Hph-1-eGFP fusion protein for 30 min and the fluorescence of eGFP was analyzed by confocal microscopy (Bio Rad). […]

[2] = system: Jurkat (E6.1) cells; assay: Transduction efficiency and kinetics of Hph-1-β-gal, western blot; assay type: cell-based
Protocol: After the Hph-1-β-gal construct was transduced into each cell line for 1 hour, the cells were washed with PBS and fixed immediately. Then, the fixed cells were incubated with X-Gal solution for 1-3 hours at 37° C. The mice tissue samples from the liver, kidney, heart, lung, spleen and brain were isolated at 12 hours after i.p. injection of Hph-1-β-gal, sectioned (in 10- and 50-μm sections), and assayed using an X-Gal staining kit (Roche) (Schwarze S. R., et al., Science 285:1569-1572 (1999)). The image was captured by fluorescence microscopy (Nikon). Transduction capacity of Hph-1-β-gal was also analyzed by western blot analysis. Equal numbers of cells were solubilized in SDS-PAGE sample buffer and the proteins were resolved on a 12% gel, and blotted onto PVDF, which was probed with monoclonal antibody (1:1,000) to β-gal (Cell Signaling). Bound antibody was detected using horseradish peroxidase-conjugated antibody to mouse IgG (1:5,000), followed by enhanced chemiluminescence (Pierce). To monitor the localization of the Hph-1-PTD-eGFP fusion protein, Hela cells were incubated with 10 μM of Hph-1-eGFP fusion protein for 30 min and the fluorescence of eGFP was analyzed by confocal microscopy (Bio Rad).
Using the purified Hph-1-β-gal fusion protein or the control β-gal protein, transduction efficiency was analyzed by western blot analysis in Jurkat (E6.1) cells. […] (FIG. 11B).

[3] = system: Jurkat T cells; assay: Transduction efficiency and kinetics of Hph-1-ctCTLA-4, intracellular staining; assay type: cell-based
Protocol: Transduction efficiency of Hph-1-HA-ctCTLA-4 was analyzed by intracellular staining using HA-fluorescein mAb (Cell Signaling). After cells were permeablized by cytofix/cytoperm solution (Pharmingen) and incubated with HA-fluorescein mAb at 4° C. for 30 min. Intracellular fluorescence was determined by FACS calibur (Becton Dickinson).
By taking advantage of the capacity of Hph-1-PTD to deliver a large target protein into the cells or organs in vivo through nasal airway, a fusion protein of Hph-1-PTD and the cytoplasmic domain of CTLA-4 (Hph-1-PTD-ctCTLA-4) was constructed as described in FIG. 3A, to be used for local suppression of the immune response in an asthma model. We constructed control proteins comprised of ctCTLA-4 without Hph-1-PTD and Hph-1-ctCTLA-4YF, in which two tyrosine residues essential for its negative function were mutated into phenylalanine. The transduction efficiency of Hph-1-ctCTLA-4 was tested in Jurkat T cells, which are known not to express CTLA-4 on the surface. These cells were treated with different concentrations of Hph-1-ctCTLA-4 for different periods of time, and both the transduction efficiency and kinetics were analyzed by intracellular staining.

[4] = system: OVA-challenged mice; assay: OVA-induced allergic asthma model; details: for histological examination of lung tissues, infiltration of inflammatory cells / infiltration of inflammatory cells (eosinophils, macrophages, neutrophils, lymphocytes) into BAL fluid: OVA challenge; for infiltration of inflammatory cells (eosinophils, macrophages, neutrophils, lymphocytes) into BAL fluid: intra-nasal pretreatment
[5] = system: Zap70, ERK and JNK; assay: Tyrosine phosphorylation of signaling mediators after TcR stimulation; assay type: cell-based; details: T cells
[6] = system: Jurkat T cells and primary human CD4^+ T cells; assay: IL-2 secretion of T cells activated with anti-CD3 and anti-CD28 mAbs, ELISA; assay type: cell-based; details: for inhibition of induction of IL-2 secretion: Jurkat or human CD4^+ T cells, fusion and control proteins
Protocol: (§1) Primary human CD4^+ T cells were purified from buffy coats from healthy donors. PBMC were isolated by density gradient centrifugation using Histopaque (Sigma). The lymphocyte layer was collected and CD4^+ T cells were isolated by MACS column using CD4 microbeads (Miltenyi Biotec) (Busch R., et al., J. Immunol. Methods 286:97-109 (2004)).
(§2) One million Jurkat (E6.1) cells or primary human CD4^+ T cells were treated with Hph-1-ctCTLA-4 for 1 hour, then washed with PBS and incubated with 0.25 μg of anti-CD28 mAb (Pharmingen) for 20 min at 4° C. The anti-CD28 mAb bound cells were further activated in 0.05 μg of anti-CD3 mAb (Pharmingen) coated plates for 20 hours. Each cell was stained with anti-CD69-PE and anti-CD25-FITC antibodies (Pharmingen) and analyzed by FACS calibur (Becton Dickinson). The supernatant in each well was analyzed for the level of secreted IL-2 by ELISA (R&D system).
(§3) To examine whether the delivered Hph-1-ctCTLA-4 can inhibit T cell activation, Jurkat T cells or primary human CD4^+ T cells were treated with Hph-1-ctCTLA-4 and stimulated with anti-CD28 mAb and plate-bound anti-CD3 mAb. The levels of activation-induced surface proteins such as CD69 and CD25 were analyzed by FACS.

[7] = system: Jurkat T cells or primary human CD4^+ T cells; assay: Induction of CD69 and CD25 on activated T cells, FACS; assay type: cell-based; details: anti-CD28 mAb and plate-bound anti-CD3 mAb stimulation
Protocol: as §1, §2, §3

[8] = single pretreatment, 25 μg, OVA-challenged mice

Question: With “Hph-1-PTD: protein transduction domain of 11 amino acids (YARVRRRGPRR) from human transcriptional factor Hph-1; tested as β-gal fusion (also: tested as β-gal fusion; listed as Homo sapiens)” as the substance, how does the “cells positive for β-gal enzyme activity” value [1] read?
Answer: The value was about 100%.

Question: And the “reduction of transduction efficiency at 4° C.” value ([2]; 4° C.)?
Answer: The value was 40%.

Question: And the “concentration dependence of protein transduction” value ([2]; Jurkat (E6.1) cells)?
Answer: The value was “concentration-dependent manner”.

Question: For “Hph-1-ctCTLA-4: fusion protein of Hph-1-PTD and the cytoplasmic domain of CTLA-4 (KMLKKRSPLTTGVYVKMPPTEPECEKQFQPYFIPIN; ctCTLA-4)”, which “time to maximal levels of intracellular protein” value ([3]; after incubation) is on record?
Answer: The value was 60 min.

Question: And the “transduction into the cells” value ([3]; intracellular staining)?
Answer: Its value is “concentration-dependent”.

Question: And the “histological examination of lung tissues, infiltration of inflammatory cells” value [4]?
Answer: Its value is “Inflammatory cells could not infiltrate through the mucus”.

Question: And the “inflammatory index in the lung” value ([4]; OVA-challenged mice, pretreated)?
Answer: Its value is “significantly reduced”.

Question: And the “infiltration of inflammatory cells (eosinophils, macrophages, neutrophils, lymphocytes) into BAL fluid” value ([4]; 25 μg)?
Answer: Its value is “prevent against the infiltration of these inflammatory cells into the BAL fluid to the levels observed in the PBS-challenged control group”.

Question: And the “OVA-induced airway hyper-responsiveness to methacholine” value ([4]; nebulized methacholine)?
Answer: The value was “substantially attenuated”.

Question: What about the “neutrophil and macrophage infiltration” value ([4]; single administration of about 1 mg/kg through the nasal route before the first OVA challenge) of the same substance?
Answer: Its value is “effectively inhibited”.

Question: And the “generation of IFN-γ and TGF-β in BAL fluid” value [4, 8]?
Answer: The value was “not found to affect”.

Question: What about the “production of eotaxin and Th2 type cytokines (IL-5, IL-6, IL-13) in BAL fluid” value [4, 8] of the same substance?
Answer: Its value is “significantly inhibited”.

Question: And the “induction of tyrosine phosphorylation of Zap70, ERK and JNK” value [5]?
Answer: Its value is “markedly inhibited”.

Question: And the “concentration that effectively blocks T cell activation” value [6]?
Answer: The value was 10 pM.

Question: And the “level of inhibition of IL-2 secretion compared with CsA” value ([6]; 10 pM of Hph-1-ctCTLA-4 versus CsA)?
Answer: Its value is “better or equivalent”.

Question: And the “inhibition of induction of IL-2 secretion” value [6]?
Answer: The value was “concentration dependent manner at picomolar range”.

Question: And the “fold lower concentration than CsA for comparable inhibition of T cell activation” value ([6]; versus CsA)?
Answer: Its value is 1000 fold.

Question: And the “induction of surface marker proteins CD69 and CD25” value [7]?
Answer: Its value is “significantly inhibited”.

Question: How did the “histological examination of lung tissues, infiltration of inflammatory cells” value [4] turn out when “Hph-1-ctCTLA-4YF: control protein in which two tyrosine residues essential for its negative function were mutated into phenylalanine (KMLKKRSPLTTGVFVKMPPTEPECEKQFQPFFIPIN; ctCTLA-4YF) [reference compound]” was run?
Answer: The value was “not observed”.

Question: What about the “infiltration of inflammatory cells (eosinophils, macrophages, neutrophils, lymphocytes) into BAL fluid” value ([4]; 25 μg) of the same substance?
Answer: Its value is “did not show these inhibitory effects”.

Question: What about the “production of eotaxin and Th2 type cytokines (IL-5, IL-6, IL-13) in BAL fluid” value [4, 8] of the same substance?
Answer: Its value is “no inhibition”.

Question: What about the “inhibition of induction of IL-2 secretion” value [6] of the same substance?
Answer: Its value is “neither ctCTLA-4 without Hph-1-PTD nor Hph-1-ctCTLA-4YF blocked IL-2 secretion”.

Question: What about the “induction of surface marker proteins CD69 and CD25” value [7] of the same substance?
Answer: The value was “did not show any inhibition”.
